Assay results taken from US8497278B2, “Imidazo[1,2-a]pyridine compounds” (priority 2008, dated 2013).

Assays:
[1] = target: T1, α1 subtype containing GABA-A receptors (Homo sapiens, UniProt P14867+P18507); test: Two-electrode voltage clamp electrophysiology in Xenopus oocytes, potentiation of GABA EC20 response, α1; format: cell-based; settings: 100 nM compound, read-out: Percentage of potentiation alpha1
T1 construct: expressed in transfected cells; host or cells: Xenopus laevis oocytes, cRNA injected
T1 sequence (P14867 28-456): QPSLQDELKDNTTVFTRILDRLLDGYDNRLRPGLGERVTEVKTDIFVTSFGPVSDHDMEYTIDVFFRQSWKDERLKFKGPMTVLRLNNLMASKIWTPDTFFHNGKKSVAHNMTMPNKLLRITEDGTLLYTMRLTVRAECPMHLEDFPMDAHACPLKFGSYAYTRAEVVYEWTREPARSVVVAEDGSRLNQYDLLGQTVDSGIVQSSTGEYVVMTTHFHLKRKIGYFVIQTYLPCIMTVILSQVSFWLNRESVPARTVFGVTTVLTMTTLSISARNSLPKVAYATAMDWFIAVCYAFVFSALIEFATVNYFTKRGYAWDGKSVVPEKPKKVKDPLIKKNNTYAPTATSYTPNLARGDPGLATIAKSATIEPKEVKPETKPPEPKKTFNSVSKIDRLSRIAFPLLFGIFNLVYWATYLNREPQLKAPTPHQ
T1 sequence (P28472 26-473 partner): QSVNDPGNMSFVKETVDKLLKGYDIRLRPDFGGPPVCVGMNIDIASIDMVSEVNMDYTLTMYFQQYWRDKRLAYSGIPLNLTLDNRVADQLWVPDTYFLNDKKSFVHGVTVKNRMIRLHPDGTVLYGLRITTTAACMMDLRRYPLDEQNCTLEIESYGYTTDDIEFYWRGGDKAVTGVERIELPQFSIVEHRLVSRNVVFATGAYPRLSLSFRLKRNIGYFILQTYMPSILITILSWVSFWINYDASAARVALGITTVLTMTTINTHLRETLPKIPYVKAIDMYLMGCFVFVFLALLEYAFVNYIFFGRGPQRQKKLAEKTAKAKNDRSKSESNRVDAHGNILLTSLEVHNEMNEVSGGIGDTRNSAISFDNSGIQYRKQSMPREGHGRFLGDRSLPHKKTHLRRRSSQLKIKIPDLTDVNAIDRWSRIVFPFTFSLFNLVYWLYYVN
T1 sequence (P18507 40-475): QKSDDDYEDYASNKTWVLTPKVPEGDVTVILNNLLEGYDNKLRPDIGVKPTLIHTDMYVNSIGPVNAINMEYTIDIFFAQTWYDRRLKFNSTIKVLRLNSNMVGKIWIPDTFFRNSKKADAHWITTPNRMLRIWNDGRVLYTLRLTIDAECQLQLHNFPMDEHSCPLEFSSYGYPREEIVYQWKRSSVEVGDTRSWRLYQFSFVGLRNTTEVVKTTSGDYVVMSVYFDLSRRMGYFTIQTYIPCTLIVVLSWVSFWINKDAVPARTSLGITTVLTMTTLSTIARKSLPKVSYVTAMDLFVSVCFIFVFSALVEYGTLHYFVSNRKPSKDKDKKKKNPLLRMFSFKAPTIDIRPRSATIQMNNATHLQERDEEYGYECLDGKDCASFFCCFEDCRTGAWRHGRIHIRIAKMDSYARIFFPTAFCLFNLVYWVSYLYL
Description: (§1) Electrophysiology protocol: Oocytes were prepared from adult female Xenopus laevis frogs. cRNA encoding human α1, α2, α3, α5, β3 and γ2L GABAA receptor subunits was injected into the cytoplasm of stage 5 or 6 oocytes using the Robocyte Robot (Multi Channel Systems, Reutlingen, Germany). Two-electrode voltage clamp recordings were made in 96-well plates using the Robocyte Robot. Oocytes were impaled using recording heads with two glass electrodes containing 1.5 M potassium acetate and 0.5 M KCl and held at a membrane potential of −80 mV. Oocytes were continually perfused with a ND96 solution (96 mM NaCl, 2 mM KCl, 0.1 mM CaCl2, and 5 mM HEPES, pH 7.5) using a Gilson 222 XL Liquid Handler and Gilson Minipuls 3 Peristaltic Pump (Gilson Medical Electronics, Middleton, Wis., USA). The protocol consisted of three 20-s applications of GABA that gave a 20% of the maximum response (EC20: 60 μM) to allow for headroom to determine a baseline GABA response. To assess the potentiation, oocytes were first exposed to a single 1 μM chlordiazepoxide (CDP) as a potentiation standard. Oocytes with insufficient expression levels (currents below threshold) or insufficient γ2L subunit incorporation (judged by rapid desensitization upon GABA application, or by insufficient potentiation by CDP) were not included in analysis. Following this control application, a given oocyte was exposed to test compounds at 100 nM concentrations. Only one concentration of one compound was tested per oocyte. […] One skilled in the art will recognize that subtypes contribute to the effects of GABA-A modulators. Such that compounds favoring different subtypes can have different therapeutic effects. The magnitude of modulation, for example, partial modulators can influence the effects in vivo. “++” indicates a greater modulation that “+” so that at any given subtype “++” inducates a greater amount of modulation for that subtype. In some embodiments, modulation favoring alpha 1 relative to alpha2 and/or alpha 3 can have sedative hypnotic effects. In other embodiments, compounds with reduced selectivity of alpha 1 can express anxiolytic effects with less sedation. Compounds with selectivity for alpha 5 can have memory/cognition enhancing effects.

[2] = target: T2, α2 subtype containing GABA-A receptors (Homo sapiens, UniProt P18507+P47869); test: Two-electrode voltage clamp electrophysiology in Xenopus oocytes, potentiation of GABA EC20 response, α2; format: cell-based; settings: 100 nM compound, read-out: Percentage of potentiation alpha2
T2 construct: expressed in transfected cells; host or cells: Xenopus laevis oocytes, cRNA injected
T2 sequence (P47869 29-451): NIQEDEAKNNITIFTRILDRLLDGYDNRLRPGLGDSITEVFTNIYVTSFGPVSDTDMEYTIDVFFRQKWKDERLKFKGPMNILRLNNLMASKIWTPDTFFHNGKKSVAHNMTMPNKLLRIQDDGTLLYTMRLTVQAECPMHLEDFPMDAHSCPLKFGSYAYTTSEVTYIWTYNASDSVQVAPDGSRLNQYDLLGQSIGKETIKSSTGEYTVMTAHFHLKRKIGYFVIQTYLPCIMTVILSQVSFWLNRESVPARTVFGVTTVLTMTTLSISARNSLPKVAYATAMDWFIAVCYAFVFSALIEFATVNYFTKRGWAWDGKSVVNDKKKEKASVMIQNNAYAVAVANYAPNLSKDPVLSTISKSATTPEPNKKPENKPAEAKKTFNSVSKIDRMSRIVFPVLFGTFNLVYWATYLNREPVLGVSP
T2 sequence (P28472 26-473 partner): as the sequence (P28472 26-473 partner) above
T2 sequence (P18507 40-475): as the sequence (P18507 40-475) above
Description: as §1

[3] = test system: central benzodiazepine receptors; test: Central benzodiazepine receptor binding (test of Speth et al.); settings: 1000 nM of the compound
In short: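 Radioligand binding by the Speth et al. method. Specific binding is total minus nonspecific binding, the latter measured with excess unlabelled ligand. Compounds screened at 1.0E-09, 1.0E-07 and 1.0E-05 M in single determination; values given as percent inhibition at 1000 nM compound.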

SMILES	activation at 0.1 µM [1]	activation at 0.1 µM [2]	% Inhibition at 1000 nM for CBZD [3]
COC(=O)c1ncn(Cc2c(-c3ccc(Cl)cc3)nc3ccccn23)n1 [Compound 25, 1-[2-(4-Chloro-phenyl)-imidazo[1,2-a]pyridin-3-ylmethyl]-1H-[1,2,4]triazole-3-carboxylic acid methyl ester]	10 to 50%	≥ 50%	–
NNC(=O)c1nc(Cc2c(-c3ccc(Cl)cc3)nc3ccccn23)no1 [Compound 215, 3-((2-(4-chlorophenyl)imidazo[1,2-a]pyridin-3-yl)methyl)-1,2,4-oxadiazole-5-carbohydrazide]	-10 to 10%	10 to 50%	–
Clc1ccc(-c2nc3ccc(Cl)cn3c2Cc2cn[nH]n2)cc1 [Compound 227, 3-((2H-1,2,3-triazol-4-yl)methyl)-6-chloro-2-(4-chlorophenyl)imidazo[1,2-a]pyridine]	≥ 50%	–	++ (percentage of inhibition of central BZD site binding is greater than 80% in the presence of 1000 nM of the compound)
CN(O)C(=O)c1nc(Cc2c(-c3ccc(F)cc3)nc3ccc(F)cn23)no1 [Compound 225, 3-((6-fluoro-2-(4-fluorophenyl)imidazo-[1,2-a]pyridin-3-yl)methyl)-N-hydroxy-N-methyl-1,2,4-oxadiazole-5-carboxamide]	≤ -10%	10 to 50%	–
Cc1ccc(-c2nc3ccc(C)cn3c2CNc2nc(C)cc(Cl)n2)cc1 [Compound 147, 4-chloro-6-methyl-N-((6-methyl-2-p-tolylimidazo[1,2-a]pyridin-3-yl)methyl)pyrimidin-2-amine]	≥ 50%	–	++ (percentage of inhibition of central BZD site binding is greater than 80% in the presence of 1000 nM of the compound)
CN(C)c1ccn(Cc2c(-c3ccc(Cl)cc3)nc3ccccn23)c(=O)n1 [Compound 135, 1-((2-(4-chlorophenyl)imidazo[1,2-a]pyridin-3-yl)methyl)-4-(dimethylamino)pyrimidin-2(1H)-one]	–	≥ 50%	++ (percentage of inhibition of central BZD site binding is greater than 80% in the presence of 1000 nM of the compound)
Cc1ccnc(NCc2c(-c3ccc(Cl)cc3)nc3ccccn23)n1 [Compound 157, [2-(4-Chloro-phenyl)-imidazo[1,2-a]pyridin-3-ylmethyl]-(4-methyl-pyrimidin-2-yl)-amine]	10 to 50%	–	++ (percentage of inhibition of central BZD site binding is greater than 80% in the presence of 1000 nM of the compound)
Cc1cc(Cl)nc(NCc2c(-c3ccc(F)cc3)nc3ccc(Cl)cn23)n1 [Compound 162, 4-chloro-N-((6-chloro-2-(4-fluorophenyl)imidazo[1,2-a]pyridin-3-yl)methyl)-6-methylpyrimidin-2-amine]	10 to 50%	–	++ (percentage of inhibition of central BZD site binding is greater than 80% in the presence of 1000 nM of the compound)
Cc1ccc(-c2nc3ccc(C)cn3c2CNc2ccon2)cc1 [Compound 149, N-((6-methyl-2-p-tolylH-imidazo[1,2-a]pyridin-3-yl)methyl)isoxazole-3-amine]	–	–	++ (percentage of inhibition of central BZD site binding is greater than 80% in the presence of 1000 nM of the compound)
Cc1ccc(-c2nc3ccc(C)cn3c2CN2C(=O)OC(C)(C)C2=O)cc1 [Compound 101, 5,5-dimethyl-3-((6-methyl-2-p-tolylH-imidazo[1,2-a]pyridin-3-yl)methyl)oxazolidine-2,4-dione]	–	–	++ (percentage of inhibition of central BZD site binding is greater than 80% in the presence of 1000 nM of the compound)
